Where a SMILES comes first, the peptide text is derived from it. [ ]: non-standard residue; d: D form. The star is where a group is joined. BI2536acyl = CC[C@@H]1C(=O)N(C)c2cnc(Nc3ccc(C(=O)*)cc3OC)nc2N1C1CCCC1; His(π-(CH2)8Ph) = N[C@@H](Cc1cncn1CCCCCCCCc1ccccc1)C(=O)O; pT = C[C@@H](OP(=O)(O)O)[C@H](N)C(=O)O; AEEA = NCCOCCOCC(=O)O
How the values were obtained:
[1] = target: T1, Serine/threonine-protein kinase PLK1 (Homo sapiens, UniProt P53350); assay: Displacement of FITC-miniPEG-FDPPLHSpTA from full length Plk1 (unknown origin) preincubated for 30 mins followed by fluorescent probe addition and measured after 30 mins by fluorescence polarization assay
[2] = target: T1, Serine/threonine-protein kinase PLK1; assay: Displacement of biotin-Ahx-PMQSpTPLN from myc-tagged Plk1 in cytosolic lysates (unknown origin) preincubated for 1 hr followed by biotinylated probe addition and measured after 1 hr by ELISA; type: subcellular, Cytosol

T1 sequence (P53350 whole entry): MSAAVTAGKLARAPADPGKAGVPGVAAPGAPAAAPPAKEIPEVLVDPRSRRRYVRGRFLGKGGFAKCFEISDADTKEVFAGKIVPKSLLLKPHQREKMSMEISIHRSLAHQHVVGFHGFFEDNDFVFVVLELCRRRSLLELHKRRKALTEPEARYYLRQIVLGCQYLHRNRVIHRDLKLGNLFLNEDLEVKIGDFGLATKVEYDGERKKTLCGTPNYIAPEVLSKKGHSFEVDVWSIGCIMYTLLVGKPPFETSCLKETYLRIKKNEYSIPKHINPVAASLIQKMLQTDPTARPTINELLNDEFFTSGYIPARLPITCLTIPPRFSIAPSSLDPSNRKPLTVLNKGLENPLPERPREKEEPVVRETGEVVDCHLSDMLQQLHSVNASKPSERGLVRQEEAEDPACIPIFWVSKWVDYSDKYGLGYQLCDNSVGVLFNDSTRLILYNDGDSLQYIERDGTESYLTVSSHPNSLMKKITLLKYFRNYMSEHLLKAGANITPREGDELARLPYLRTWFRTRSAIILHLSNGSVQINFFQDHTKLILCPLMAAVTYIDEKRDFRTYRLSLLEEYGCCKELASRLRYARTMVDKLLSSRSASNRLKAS

Structure (SMILES) | IC50 [1] | IC50 [2]
CC[C@@H]1C(=O)N(C)c2cnc(Nc3ccc(C(=O)NCCCC[C@H](NC(=O)COCCOCCNC(=O)COCCOCCNC(=O)COCCOCCNC(=O)COCCOCCNC(=O)[C@@H](NC(=O)[C@H](CO)NC(=O)[C@H](Cc4cncn4CCCCCCCCc4ccccc4)NC(=O)[C@H](CC(C)C)NC(=O)[C@@H]4CCCN4C(C)=O)[C@@H](C)O)C(N)=O)cc3OC)nc2N1C1CCCC1 (Ac-PL[His(π-(CH2)8Ph)]ST[AEEA][AEEA][AEEA][AEEA]K(BI2536acyl)-NH2) | Not_active | Not_active
CC[C@@H]1C(=O)N(C)c2cnc(Nc3ccc(C(=O)NCCCC[C@H](NC(=O)COCCOCCNC(=O)[C@@H](NC(=O)[C@H](CO)NC(=O)[C@H](Cc4cncn4CCCCCCCCc4ccccc4)NC(C)=O)[C@@H](C)OP(=O)(O)O)C(N)=O)cc3OC)nc2N1C1CCCC1 (Ac-[His(π-(CH2)8Ph)]S[pT][AEEA]K(BI2536acyl)-NH2) | – | Not_active
CC[C@@H]1C(=O)N(C)c2cnc(Nc3ccc(C(=O)NCCCC[C@H](NC(=O)COCCOCCNC(=O)COCCOCCNC(=O)COCCOCCNC(=O)COCCOCCNC(=O)[C@@H](NC(=O)[C@H](CO)NC(=O)[C@H](Cc4c[nH]cn4)NC(=O)[C@H](CC(C)C)NC(=O)[C@@H]4CCCN4C(C)=O)[C@@H](C)O)C(N)=O)cc3OC)nc2N1C1CCCC1 (Ac-PLHST[AEEA][AEEA][AEEA][AEEA]K(BI2536acyl)-NH2) | Not_active | Not_active
CC[C@@H]1C(=O)N(C)c2cnc(Nc3ccc(C(=O)NCCCC[C@H](NC(C)=O)C(=O)NCCOCCOCC(=O)NCCOCCOCC(=O)NCCOCCOCC(=O)NCCOCCOCC(=O)N4CCC[C@H]4C(=O)N[C@@H](CC(C)C)C(=O)N[C@@H](Cc4cncn4CCCCCCCCc4ccccc4)C(=O)N[C@@H](CO)C(=O)N[C@H](C(N)=O)[C@@H](C)O)cc3OC)nc2N1C1CCCC1 (Ac-K(BI2536acyl)[AEEA][AEEA][AEEA][AEEA]PL[His(π-(CH2)8Ph)]ST-NH2) | Not_active | Not_active
CC[C@@H]1C(=O)N(C)c2cnc(Nc3ccc(C(=O)NCCCC[C@H](NC(C)=O)C(=O)NCCOCCOCC(=O)N[C@@H](Cc4cncn4CCCCCCCCc4ccccc4)C(=O)N[C@@H](CO)C(=O)N[C@H](C(N)=O)[C@@H](C)OP(=O)(O)O)cc3OC)nc2N1C1CCCC1 (Ac-K(BI2536acyl)[AEEA][His(π-(CH2)8Ph)]S[pT]-NH2) | – | Not_active
CC[C@@H]1C(=O)N(C)c2cnc(Nc3ccc(C(=O)NCCCC[C@H](NC(C)=O)C(=O)NCCOCCOCC(=O)NCCOCCOCC(=O)NCCOCCOCC(=O)NCCOCCOCC(=O)N4CCC[C@H]4C(=O)N[C@@H](CC(C)C)C(=O)N[C@@H](Cc4c[nH]cn4)C(=O)N[C@@H](CO)C(=O)N[C@H](C(N)=O)[C@@H](C)O)cc3OC)nc2N1C1CCCC1 (Ac-K(BI2536acyl)[AEEA][AEEA][AEEA][AEEA]PLHST-NH2) | Not_active | Not_active

— ChEMBL document CHEMBL6109049, “Fine-tuning probes for fluorescence polarization binding assays of bivalent ligands against polo-like kinase 1 using full-length protein” (Bioorg Med Chem, 2025)
